One series addresses T1, ETB receptor (Rattus norvegicus, UniProt P21451).
T1 construct: Rat brain tissue was minced, and a crude receptor membrane sample was prepared; from tissue; host or cells: rat brain crude membranes
T1 sequence (P21451 27-442): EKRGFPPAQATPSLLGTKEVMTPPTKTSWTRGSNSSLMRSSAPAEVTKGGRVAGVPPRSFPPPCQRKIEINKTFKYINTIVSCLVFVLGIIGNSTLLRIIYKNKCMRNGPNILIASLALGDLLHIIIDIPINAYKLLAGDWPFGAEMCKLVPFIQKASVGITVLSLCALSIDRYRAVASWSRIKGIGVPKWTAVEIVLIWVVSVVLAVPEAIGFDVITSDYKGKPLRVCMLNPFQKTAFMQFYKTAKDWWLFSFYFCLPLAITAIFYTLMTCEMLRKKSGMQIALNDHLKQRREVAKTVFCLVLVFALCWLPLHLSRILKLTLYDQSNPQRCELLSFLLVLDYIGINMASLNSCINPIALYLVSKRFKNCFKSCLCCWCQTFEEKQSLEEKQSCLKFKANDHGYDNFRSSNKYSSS
The series can be described thus: Endothelin binding inhibition experiment, 125I-endothelin-1 binding assay, ETB receptor membrane sample from rat brain. Conditions: 125I-endothelin-1, rat brain membranes. As to the method: (§1) Endothelin Binding Inhibition Experiment
(§2) The thus-obtained membrane sample (1 μl) was incubated together with ^125I-endothelin-1 (2×10^−11 M) and various concentrations of the compounds, for 2 hours at 25° C., in 250 μl in total volume of 50 mM Tris-HCl buffer (pH 7.4) containing 0.5% bovine serum albumin. The incubated mixture was filtered by use of an HVPP filters (pore size 0.45 μm, product of Milipore). The filters were washed with cold buffer A four times, and then measured with a gamma-ray counter (Aroka Autowell Gamma System ARC-251). Preparation of receptor membrane sample (ETB) from rat brain and assay of ^125I endothelin-1:
Rat brain tissue was minced, and a crude receptor membrane sample was prepared in a manner similar to that used in the aforementioned case of porcine thoracic aorta. Also, ^125I-endothelin-1 assay was performed in the same manner as described above.

For the next series, the target named is T2, ETA receptor (Sus scrofa, UniProt Q29010).
T2 construct: Porcine thoracic aorta which was separated from the fatty tissue and then was removed endothelium with gauze was minced, and then homogenized; from tissue; host or cells: porcine thoracic aorta smooth muscle membranes
T2 sequence (Q29010 21-427): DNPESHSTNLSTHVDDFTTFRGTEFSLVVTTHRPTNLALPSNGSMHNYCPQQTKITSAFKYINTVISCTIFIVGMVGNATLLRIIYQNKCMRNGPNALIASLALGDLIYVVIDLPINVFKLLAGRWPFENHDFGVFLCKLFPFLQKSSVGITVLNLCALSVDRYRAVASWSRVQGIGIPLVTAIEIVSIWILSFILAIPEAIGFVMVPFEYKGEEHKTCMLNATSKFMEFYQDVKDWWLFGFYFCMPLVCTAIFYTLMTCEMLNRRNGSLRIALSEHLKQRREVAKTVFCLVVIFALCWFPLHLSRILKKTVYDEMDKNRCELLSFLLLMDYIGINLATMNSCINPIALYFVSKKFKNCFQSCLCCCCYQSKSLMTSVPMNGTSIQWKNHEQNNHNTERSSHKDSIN
The series can be described thus: Endothelin binding inhibition experiment, 125I-endothelin-1 binding assay, ETA receptor membrane samples from smooth muscles of porcine thoracic aorta. Conditions: 125I-endothelin-1 2×10^−11 M, porcine thoracic aorta membranes, 2 hours at 25° C. As to the method:
as §1
Preparation of receptor membrane samples (ETA) from smooth muscles of porcine thoracic aorta:
Porcine thoracic aorta which was separated from the fatty tissue and then was removed endothelium with gauze was minced, and then homogenized in three times the volume of Tris-HCl buffer (pH 7.4) (buffer A) containing 0.25 M sucrose, 3 mM ethylenediaminetetraacetic acid, 5 μg/ml of aprotinin, 10 μg/ml of pepstatin A, 10 μg/ml of leupeptin, and 0.1 μM p-amidinophenyl-methanesulfonyl fluoride. After centrifugation for 30 minutes at 1,000×g, the supernatant was further centrifuged for 30 minutes at 100,000×g. The pellets were suspended in buffer A, and recentrifuged for 30 minutes at 100,000×g. The pellets were suspended in buffer A and the suspension was stored at −80° C.
^125I-Endothelin-1 Binding Assay
as §2, with “endothelin-1: […]” for “endothelin-1:”

Where a name gives a salt, the structure may show the parent alone.

What is called melting point is the temperature, or range, at which the solid turns liquid. The term IC50 denotes the concentration that inhibits the measured activity by half.

In the case of `COc1ccccc1Oc1c(NS(=O)(=O)c2ccc(C(C)(C)C)cc2)nc(-c2ncccn2)nc1OCCC(=O)Nc1ccccc1` (as salt: sodium) [Compound No. 18, N-phenyl-3-[6-(4-t-butylphenylsulfonylamino)-5-(2-methoxyphenoxy)-2-(2-pyrimidinyl)-4-pyrimidinyloxy]-propionamide], the melting point lay within 162 to 163 °C. As to `COc1ccccc1CNC(=O)CCOc1nc(-c2ncccn2)nc(NS(=O)(=O)c2ccc(C(C)(C)C)cc2)c1Oc1ccccc1OC` (as salt: sodium) [Compound No. 34, N-(2-methoxybenzyl)-3-[6-(4-t-butylphenylsulfonylamino)-5-(2-methoxyphenoxy)-2-(2-pyrimidinyl)-4-pyrimidinyloxy]propionamide], the melting point was 138 to 139 °C. `CCCCCNC(=O)CCOc1nc(-c2ncccn2)nc(NS(=O)(=O)c2ccc(C(C)(C)C)cc2)c1Oc1ccccc1OC` (as salt: sodium) [Compound No. 43, N-(n-pentyl)-3-[6-(4-t-butylphenylsulfonylamino)-5-(2-methoxyphenoxy)-2-(2-pyrimidinyl)-4-pyrimidinyloxy]-propionamide] had a melting point of 142 to 144 °C.

`COc1ccccc1NC(=O)CCOc1nc(-c2ncccn2)nc(NS(=O)(=O)c2ccc(C(C)(C)C)cc2)c1Oc1ccccc1OC` (as salt: sodium) [Compound No. 48, N-(2-methoxyphenyl)-3-[6-(4-t-butylphenylsulfonylamino)-5-(2-methoxyphenoxy)-2-(2-pyrimidinyl)-4-pyrimidinyloxy]propionamide] showed a melting point of 120 to 122 °C.

For `COc1ccccc1Oc1c(NS(=O)(=O)c2ccc(C(C)(C)C)cc2)nc(-c2ncccn2)nc1OCC(=O)O` [Compound No. 2, [6-(4-t-butylphenyl-sulfonylamino)-5-(2-methoxyphenoxy)-2-(2-pyrimidinyl)-4-pyrimidinyloxy]acetic acid], the figures for the IC50 on ETB receptor and on ETA receptor were 0.8 µM and 9.4 µM, respectively. The matching figures for `CCOC(=O)CCOc1nc(-c2ncccn2)nc(NS(=O)(=O)c2ccc(C(C)(C)C)cc2)c1Oc1ccccc1OC` [Compound No. 9, ethyl 3-[6-(4-t-butylphenylsulfonylamino)-5-(2-methoxyphenoxy)-2-(2-pyrimidinyl)-4-pyrimidinyloxy]propionate]: 2.9 µM and 0.72 µM. Take `COc1ccccc1Oc1c(NS(=O)(=O)c2ccc(C(C)(C)C)cc2)nc(-c2ncccn2)nc1OCC(=O)OCc1ccccc1` [Compound No. 10, benzyl [6-(4-t-butylphenylsulfonylamino)-5-(2-methoxyphenoxy)-2-(2-pyrimidinyl)-4-pyrimidinyloxy]acetate]: the values for the IC50 at ETB receptor and on ETA receptor were 0.65 µM and 0.51 µM, respectively. In the same order, the values of `COc1ccccc1Oc1c(NS(=O)(=O)c2ccc(C(C)(C)C)cc2)nc(-c2ncccn2)nc1OCC(=O)Oc1cccc(Cl)c1` [Compound No. 12, 3-chlorophenyl [6-(4-t-butylphenylsulfonylamino)-5-(2-methoxyphenoxy)-2-(2-pyrimidinyl)-4-pyrimidinyloxy]acetate] are 0.82 µM and 0.32 µM.

Consider `COc1ccccc1Oc1c(NS(=O)(=O)c2ccc(C(C)(C)C)cc2)nc(-c2ncccn2)nc1OCCC(=O)NCc1ccccc1` [Compound No. 14, N-benzyl-3-[6-(4-t-butylphenylsulfonylamino)-5-(2-methoxyphenoxy)-2-(2-pyrimidinyl)-4-pyrimidinyloxy]-propionamide], for which the IC50 on ETB receptor came to 0.0028 µM; at ETA receptor it was 0.82 µM. As for `COc1ccccc1Oc1c(NS(=O)(=O)c2ccc(C(C)(C)C)cc2)nc(-c2ncccn2)nc1OCC(=O)NCc1ccccc1` [Compound No. 15, N-benzyl-[6-(4-t-butylphenylsulfonylamino)-5-(2-methoxyphenoxy)-2-(2-pyrimidinyl)-4-pyrimidinyloxy]acetamide], the IC50 on ETB receptor was 0.016 µM; at ETA receptor, 3.2 µM. Take `COc1ccccc1Oc1c(NS(=O)(=O)c2ccc(C(C)(C)C)cc2)nc(-c2ncccn2)nc1OCCC(=O)Nc1ccccc1` [Compound No. 18, N-phenyl-3-[6-(4-t-butylphenylsulfonylamino)-5-(2-methoxyphenoxy)-2-(2-pyrimidinyl)-4-pyrimidinyloxy]-propionamide]: the figures for the IC50 at ETB receptor and on ETA receptor were 0.023 µM and 0.15 µM, respectively. Turning to `COc1ccccc1Oc1c(NS(=O)(=O)c2ccc(C(C)(C)C)cc2)nc(-c2ncccn2)nc1OCCCC(=O)Nc1ccccc1` [Compound No. 25, N-phenyl-4-[6-(4-t-butylphenylsulfonylamino)-5-(2-methoxyphenoxy)-2-(2-pyrimidinyl)-4-pyrimidinyloxy]butyramide], the IC50 at ETB receptor was 0.037 µM; at ETA receptor, 1.9 µM. In the same order, the values of `COc1ccccc1NC(=O)CCCOc1nc(-c2ncccn2)nc(NS(=O)(=O)c2ccc(C(C)(C)C)cc2)c1Oc1ccccc1OC` [Compound No. 29, N-(2-methoxyphenyl)-4-[6-(4-t-butylphenylsulfonylamino)-5-(2-methoxyphenoxy)-2-(2-pyrimidinyl)-4-pyrimidinyloxy]-butyramide] are 0.03 µM and 3.1 µM. `COc1ccccc1CNC(=O)CCOc1nc(-c2ncccn2)nc(NS(=O)(=O)c2ccc(C(C)(C)C)cc2)c1Oc1ccccc1OC` [Compound No. 34, N-(2-methoxybenzyl)-3-[6-(4-t-butylphenylsulfonylamino)-5-(2-methoxyphenoxy)-2-(2-pyrimidinyl)-4-pyrimidinyloxy]propionamide]: the IC50 is 0.22 µM on ETB receptor and 0.39 µM on ETA receptor. The matching figures for `COc1ccccc1NC(=O)CCOc1nc(-c2ncccn2)nc(NS(=O)(=O)c2ccc(C(C)(C)C)cc2)c1Oc1ccccc1OC` [Compound No. 48, N-(2-methoxyphenyl)-3-[6-(4-t-butylphenylsulfonylamino)-5-(2-methoxyphenoxy)-2-(2-pyrimidinyl)-4-pyrimidinyloxy]propionamide]: 0.00075 µM and 0.16 µM. For `COc1ccccc1Oc1c(NS(=O)(=O)c2ccc(C(C)(C)C)cc2)nc(-c2ncccn2)nc1OCCC(=O)Nc1ccccc1C(C)C` [Compound No. 53, N-(2-isopropylphenyl)-3-[6-(4-t-butylphenylsulfonylamino)-5-(2-methoxyphenoxy)-2-(2-pyrimidinyl)-4-pyrimidinyloxy]propionamide], the IC50 on ETB receptor was 0.00082 µM; at ETA receptor, 0.098 µM. On to `COc1ccccc1Oc1c(NS(=O)(=O)c2ccc(C(C)(C)C)cc2)nc(-c2ncccn2)nc1OCCC(=O)Nc1ccccn1` [Compound No. 92, N-(2-pyridyl)-3-[6-(4-t-butylphenylsulfonylamino)-5-(2-methoxyphenoxy)-2-(2-pyrimidinyl)-4-pyrimidinyloxy]-propionamide], for which the values for the IC50 at ETB receptor and at ETA receptor were 0.1 µM and 0.0095 µM, respectively.

As for “N-(2-chlorophenethyl)-4-[6-(4-t-butylphenylsulfonylamino)-5-(2-methoxyphenoxy)-2-(2-pyrimidinyl)-4-pyrimidinyloxy]-butylamide [Compound No. 38]”, the figures for the IC50 on ETB receptor and at ETA receptor were 0.019 µM and 16.9 µM, respectively.
